The text below walks through data of patent publication US20190083498A1, “THERAPIES FOR HEMATOLOGIC MALIGNANCIES” (GILEAD CALISTOGA LLC, priority 2008, published 2019).

Molecules are shown by their SMILES.

For one data set, the target named is Class III PI3K hVPS34 (Homo sapiens, UniProt Q8NEB9). The following applies: read-out: Class III PI3K, IC50 hVPS34; InvitroGen Adapta assay.
The target in the next data set is class II PI3K CIIbeta (Homo sapiens, UniProt O00750). In words: IC50 profile across kinases, InvitroGen Adapta assay. The class given is biochemical.
Chain of class II PI3K CIIbeta (O00750 whole entry): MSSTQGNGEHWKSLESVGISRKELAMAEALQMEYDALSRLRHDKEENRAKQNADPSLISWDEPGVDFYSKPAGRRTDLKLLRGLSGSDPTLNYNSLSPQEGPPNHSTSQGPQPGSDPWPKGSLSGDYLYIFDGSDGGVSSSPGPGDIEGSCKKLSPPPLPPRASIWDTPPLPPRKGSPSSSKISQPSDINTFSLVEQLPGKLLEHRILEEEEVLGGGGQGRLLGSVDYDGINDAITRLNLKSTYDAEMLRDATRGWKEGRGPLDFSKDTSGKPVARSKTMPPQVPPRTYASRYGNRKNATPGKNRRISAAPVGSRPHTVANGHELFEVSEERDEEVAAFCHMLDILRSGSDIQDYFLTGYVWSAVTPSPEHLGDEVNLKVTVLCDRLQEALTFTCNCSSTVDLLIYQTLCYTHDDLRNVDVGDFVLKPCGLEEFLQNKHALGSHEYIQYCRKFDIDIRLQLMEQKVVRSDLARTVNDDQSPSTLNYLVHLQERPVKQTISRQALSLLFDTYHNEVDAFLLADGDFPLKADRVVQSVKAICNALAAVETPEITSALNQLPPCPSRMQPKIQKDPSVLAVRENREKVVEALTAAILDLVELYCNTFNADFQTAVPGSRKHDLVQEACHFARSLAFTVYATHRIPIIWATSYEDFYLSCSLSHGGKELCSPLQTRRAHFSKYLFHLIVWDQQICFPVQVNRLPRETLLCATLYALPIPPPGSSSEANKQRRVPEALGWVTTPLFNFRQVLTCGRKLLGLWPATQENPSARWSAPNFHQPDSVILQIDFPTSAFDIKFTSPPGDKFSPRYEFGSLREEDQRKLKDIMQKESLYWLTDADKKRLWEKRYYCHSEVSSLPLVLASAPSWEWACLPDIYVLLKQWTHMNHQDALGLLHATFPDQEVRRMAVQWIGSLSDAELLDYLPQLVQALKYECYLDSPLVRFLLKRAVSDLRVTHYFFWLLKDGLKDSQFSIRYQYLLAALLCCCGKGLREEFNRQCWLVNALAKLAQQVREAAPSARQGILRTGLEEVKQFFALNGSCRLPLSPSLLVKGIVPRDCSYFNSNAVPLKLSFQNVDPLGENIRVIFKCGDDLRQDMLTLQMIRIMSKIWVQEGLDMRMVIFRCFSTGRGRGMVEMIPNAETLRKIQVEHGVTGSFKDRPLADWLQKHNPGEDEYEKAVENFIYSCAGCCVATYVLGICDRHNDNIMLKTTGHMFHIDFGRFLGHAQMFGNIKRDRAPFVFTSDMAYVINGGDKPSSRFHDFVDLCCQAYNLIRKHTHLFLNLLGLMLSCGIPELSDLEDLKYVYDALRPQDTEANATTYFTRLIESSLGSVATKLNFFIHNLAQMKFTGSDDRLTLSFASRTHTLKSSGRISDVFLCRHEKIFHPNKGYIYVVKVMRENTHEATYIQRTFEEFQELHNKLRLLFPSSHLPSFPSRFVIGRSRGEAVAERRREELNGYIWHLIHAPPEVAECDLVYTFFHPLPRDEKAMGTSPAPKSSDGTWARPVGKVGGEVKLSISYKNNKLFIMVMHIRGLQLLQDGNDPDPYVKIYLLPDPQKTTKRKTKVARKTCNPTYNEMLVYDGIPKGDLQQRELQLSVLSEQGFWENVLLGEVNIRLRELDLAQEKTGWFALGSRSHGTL
The subject of data set [1] is CLL cells with or without StromaNKTert. In words: CLL cell viability/apoptosis in stromal co-culture, Annexin V/PI FACS. Format: cell-based, human. The following applies: 100 nM alone; two patients; 24 hours. The procedure: CLL cell and stromal cell co-cultures: CLL cells were cultured under standardized conditions on stromal cell lines or primary NLC. Briefly, stromal cells were seeded one day prior to each experiment onto 24-well plates (Corning Life Sciences) at a concentration of 3×10^5 cells/mL/well and incubated at 37° C. in 5% CO2. Stromal cell confluence was confirmed by phase contrast microscopy, and CLL cells were then added onto the stromal cell layer at a concentration of 3×10^6 cells/mL. Cultures were then treated with compounds for the specified time periods. CLL cells were removed for analysis by gentle pipetting with media, and were then washed in PBS prior to analysis. A 24-hour co-culture time point was used unless otherwise indicated.
Cell viability testing and reagents: CLL cell viability was determined by analysis of Annexin V-FITC (BD Biosciences, San Diego, Calif.) and Propidium Iodine (PI) (Sigma) by FACS.
To determine whether PI3K inhibition increased the sensitivity of stroma-exposed CLL cells by increasing priming, PB-derived CLL cells cultured with or without StromaNKTert cells for 24 hours and were examined using Annexin-PI and BH3 profiling. […] Stromal co-culture of four CLL patient samples led to protection from apoptosis in untreated cells.

The test system of the next data set is INA-6 cells. In words: SCID-hu model, INA-6 cells in human bone chip, serum shuIL-6R ELISA. Format: in vivo, SCID mice. The following applies: 10 or 30 mg/kg daily for 4 weeks. The procedure: Human fetal bone grafts were implanted into CB17 SCID-mice (SCID-hu). Four weeks following bone implantation, 2.5×10^6 INA-6 cells were injected directly into the human BM cavity in the graft in a final volume of 100 μl of RPMI-1640 medium. An increase in the levels of soluble human IL-6 receptor (shulL-6R) from INA-6 cells was used as an indicator of MM cell growth and burden of disease in SCID-hu mice. Mice developed measurable serum shulL-6R approximately 4 weeks following INA-6 cell injection, and then received either 10 or 30 mg/kg drug or vehicle alone daily for […]. Blood samples were collected and assessed for shulL-6R levels using an enzyme-linked immunosorbent assay (ELISA, R&D Systems. Minneapolis Minn.).
Growth of INA-6 cells engrafted in human bone chips in SCID mice was monitored by serial serum measurements of shulL-6R. […] Error bars indicate SD (±).
In order to examine the activity of compound II on MM cell growth in the context of the human BM microenvironment in vivo, a SCID-hu model was used in which IL-6 dependent INA-6 cells are directly injected into a human bone chip implanted subcutaneously in SCID-mice. This model recapitulates the human BM microenvironment with human IL-6/BMSC-dependent growth of INA-6 human MM cells. These SCID-hu mice were treated with compound II or vehicle alone daily for 4 weeks, and serum shulL-6R monitored as a marker tumor burden. […]
For orientation: An ELISA detects its analyte on a solid surface through an enzyme-linked reagent.

The subject of the next data set is LB cells. As to the kind of experiment: Subcutaneous human MM xenograft model. Format: in vivo. The procedure: CB17 SCID mice (48-54 days old) were purchased from Charles River Laboratories (Wilmington, Mass.). All animal studies were conducted according to protocols approved by the Animal Ethics Committee of the Dana-Farber Cancer Institute. Mice were inoculated subcutaneously in the right flank with 3×10^6 LB cells in 100 μL RPMI-1640. When tumors were palpable, mice were assigned into the treatment groups receiving 10 mg/kg or 30 mg/kg gavages twice daily; and 7 mice in the control group receiving vehicle alone. Caliper measurements of the longest perpendicular tumor diameters were performed every alternate day to estimate the tumor volume using the following formula representing the 3D volume of an ellipse: 4/3× (width/2)2× (length/2). Animals were sacrificed when tumors reached 2 cm or the mice appeared moribund. Survival was evaluated from the first day of treatment until death. […] The images were captured with a canon IXY digital 700 camera. Ex vivo analysis of tumor images was captured with a LEICA DM IL microscope and LEICA DFC300 FX camera at 40 u/0.60 (Leica, Heidelberg, Germany).
Mean tumor volume was calculated as in Materials and Methods, FIG. 36A. Error bars represent SD (±).
Tumors harvested from Compound II (30 mg/kg) treated mouse (right panel) and control mouse (left panel) were subjected to immuno-histochemistric analysis using CD31 and P-AKT Abs. CD31 and P-AKT positive cells are dark brown, FIG. 36D.
Survival was evaluated from the first day of treatment until sacrifice using Kaplan-Meier curves, FIG. 36C.
Tumor tissues were harvested from mice treated with control vehicle or Compound II (30 mg/kg). Protein levels of phosphorylated of PDK-1 and AKT (Ser473) were determined by western blotting of cell lysates, FIG. 36E. Actin was used as a loading control.
(In xenograft studies the graft and the host belong to different species.)

A further data set deals with INA-6 and LB cells. In words: Growth of MM cells treated with 3-MA. Format: cell-based, human. The following applies: up to 100 μM; 24 h. The procedure: P110 δ positive LB cells (♦) were treated with 3-MA (0-100 μM) for 24 h. Data represent means (±SD) of triplicate cultures.

Chain of Class III PI3K hVPS34 (Q8NEB9 whole entry): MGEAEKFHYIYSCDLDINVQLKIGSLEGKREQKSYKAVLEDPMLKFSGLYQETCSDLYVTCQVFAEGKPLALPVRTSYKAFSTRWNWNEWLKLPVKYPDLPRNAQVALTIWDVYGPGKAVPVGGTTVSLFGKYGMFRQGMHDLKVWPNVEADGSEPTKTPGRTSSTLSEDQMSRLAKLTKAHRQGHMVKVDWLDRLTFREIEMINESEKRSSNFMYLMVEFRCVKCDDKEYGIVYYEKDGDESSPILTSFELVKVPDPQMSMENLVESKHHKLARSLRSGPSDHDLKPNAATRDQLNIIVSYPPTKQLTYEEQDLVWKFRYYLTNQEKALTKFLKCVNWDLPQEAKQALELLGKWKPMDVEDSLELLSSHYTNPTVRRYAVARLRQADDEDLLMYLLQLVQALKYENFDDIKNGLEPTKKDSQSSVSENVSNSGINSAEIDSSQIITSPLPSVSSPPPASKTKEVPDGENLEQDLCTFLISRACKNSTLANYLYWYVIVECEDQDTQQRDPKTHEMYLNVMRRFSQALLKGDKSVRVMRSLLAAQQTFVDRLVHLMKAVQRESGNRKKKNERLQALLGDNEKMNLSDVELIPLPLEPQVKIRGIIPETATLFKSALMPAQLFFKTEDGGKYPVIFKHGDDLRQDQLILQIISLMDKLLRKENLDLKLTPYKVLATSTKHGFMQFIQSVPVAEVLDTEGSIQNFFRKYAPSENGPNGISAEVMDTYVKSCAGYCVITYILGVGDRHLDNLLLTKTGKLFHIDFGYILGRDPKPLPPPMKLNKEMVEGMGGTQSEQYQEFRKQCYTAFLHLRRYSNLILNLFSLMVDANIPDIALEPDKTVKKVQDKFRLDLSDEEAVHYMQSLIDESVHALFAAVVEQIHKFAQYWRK

One may read the IC50 as the midpoint of a concentration-inhibition curve. In the case of `Cn1c(=O)n(-c2ccc(C(C)(C)C#N)cc2)c2c3cc(-c4cnc5ccccc5c4)ccc3ncc21` [NVP-BEZ-235], the IC50 at Class III PI3K hVPS34 is 6 nM; at class II PI3K CIIbeta, 3 nM.
As for `CN(C)CC[C@H](CSc1ccccc1)Nc1ccc(S(=O)(=O)NC(=O)c2ccc(N3CCN(Cc4ccccc4-c4ccc(Cl)cc4)CC3)cc2)cc1[N+](=O)[O-]` [ABT-737, reference compound], in data set [1], the “CLL cell viability in stromal co-culture, single agent” value was “profound stroma-mediated resistance”.
As for `CC(Nc1ncnc2[nH]cnc12)c1nc2ccc(F)cc2c(=O)n1-c1ccccc1` (stereo not drawn) [Compound II, 2-(1-(9H-purin-6-ylamino)ethyl)-6-fluoro-3-phenylquinazolin-4(3H)-one], the “tumor growth (serum shuIL-6R)” value in the data set on INA-6 cells is “significantly inhibited tumor growth”. In addition, the MM tumor growth entry with LB cells (10 mg/kg or 30 mg/kg orally twice a day, n=7) is on record as “significantly reduced”. Also, the “CD31 positive cells and microvessel density” value in the data set with LB cells (30 mg/kg) is given as “significantly decreased”. For the same compound, in the data set on LB cells (30 mg/kg, immunohistochemical and immunoblot analysis), the “p-Akt and p-PDK-1 in tumor” value was “significantly inhibited”. Further, the body weight entry in the data set on LB cells (mouse, in vivo) is on record as “did not affect body weight”.
Regarding `Cn1cnc(N)c2ncnc1-2` [Compound 3-MA, 3-Methyladenine], the “cytotoxicity in INA-6 and LB cells” value in the data set on INA-6 and LB cells is given as “No cytotoxicity”.
